Source: patent publication US20120040956A1, “INHIBITORS OF HIF-1 PROTEIN ACCUMULATION” (INTERMED DISCOVERY GMBH, priority 2008, published 2012)

Test system: cell-free protein translation (BMV mRNA, ribosomes)
Assay: Cell-free protein translation of Brome mosaic virus (BMV) mRNA with ribosomes
Assay type: biochemical
Details: relevant (nM) concentrations, SDS-PAGE
Protocol: The effect of IMD-019064 on cell-free protein translation in vitro was investigated (see also assay principle in FIG. 8). Brome mosaic virus (BMV) mRNA encoding for 4 different viral proteins was incubated with ribosomes in the presence and absence of IMD-019064 (FIG. 9a), IMD-026259, IMD-026260 (FIG. 9b), or cycloheximide (Chx, 10 μM) (positive control) and the formed proteins analyzed by SDS-PAGE.
Panels show representative SDS-PAGE protein gels. Vehicle-containing translation reactions (Veh) represent 100% translation efficacy, while Cycloheximide (Chx; 10 μg/ml) a known inhibitor of protein translation that was used as a positive control does show significant protein reduction.

## CNCCOc1ccc2c(c1)OC1(c3ccc(Cl)cc3)C(c3ccccc3)CC(O)C21O (stereo not shown) [IMD-026260, (1,3a,8b)-3a-(4-chlorophenyl)-6-(2-(methylamino)ethoxy)-3-phenyl-2,3,3a,8b-tetrahydro-1H-benzo[d]cyclopenta[b]furan-1,8b-diol]
  effect on in vitro protein translation: No significant effect
